Assays:
[1] = target: c-Met kinase (Homo sapiens, UniProt P08581); test: c-Met kinase activity assay (HTRF); type: biochemical; details: c-Met kinase from Carna Biosciences, read-out: IC50 (c-Met/BIO)
Protocol: The inhibitory ability of the compounds of the present invention on c-Met kinase activity was determined by Homogeneous Time-Resolved Fluorescence (HTRF), and was expressed by the median inhibitory concentration IC50 value of the compounds. The method was as follows: a series of compounds with gradient concentration were incubated with a specific concentration of the enzyme solution for 5 minutes at room temperature, after which an appropriate amount of enzyme reaction substrate and ATP were added to start the enzyme reaction process. After 30 minutes, an appropriate amount of stop solution and detection solution were added, and the mixture was incubated for 1 hour. Then, the enzyme activity at specific compound concentrations was measured at wavelengths of 665 nm and 620 nm on Envision 2104 Multilabel Microcell Detector of PerkinElmer Company, and the inhibitory activity of the compound at different concentrations on enzyme activity was calculated, then the result was fitted to calculate the IC50 value. The c-Met kinase used in this embodiment was purchased from Carna Biosciences, the test kit HTRF KinEASE-TK was purchased from Cisbio Bioassays Company, and ATP was purchased from Sigma Aldrich Company.

[2] = tested on: human gastric cancer cells SNU-5 with high expression of c-Met; test: c-Met cell proliferation inhibition test (CCK-8, 72 hours); type: cell-based; details: SNU-5 cells
Protocol: The inhibitory activity of the test compound on proliferation of human gastric cancer cells SNU-5 with high expression of c-Met was determined through the following in vitro cell assay, and the activity can be expressed by IC50 value. Specific experimental method can refer to Neru Munshi, Sebastien Jeay, Youzhi Li, et al., ARQ 197, a Novel and Selective Inhibitor of the Human c-Met Receptor Tyrosine Kinase with Antitumor Activity. Mol Cancer Ther 2010; 9:1544-1553, the content of which is incorporated herein by reference in its entirety. The general method is as follows: first, human tumor cells SNU-5 (purchased from the Institute of Biochemistry and Cell Biology) with high expression of c-Met was selected and inoculated on a 96-well culture plate at a suitable cell concentration (e.g., 5000 cells/ml culture medium), then they were diluted with IMDM culture medium containing 2% FBS to form a series of test compound solutions at gradient concentrations (generally 6 to 7 concentrations) and continuously incubated for 72 hours. After 72 hours, the activity of the test compound on inhibiting cell proliferation could be determined using the Cell Counting Kit-8 (CCK-8, purchased from DojinDo) method. The IC50 value can be calculated from the inhibitory values on cell proliferation of the test compound at a series of different concentrations.

Sequence of c-Met kinase (P08581 25-1390): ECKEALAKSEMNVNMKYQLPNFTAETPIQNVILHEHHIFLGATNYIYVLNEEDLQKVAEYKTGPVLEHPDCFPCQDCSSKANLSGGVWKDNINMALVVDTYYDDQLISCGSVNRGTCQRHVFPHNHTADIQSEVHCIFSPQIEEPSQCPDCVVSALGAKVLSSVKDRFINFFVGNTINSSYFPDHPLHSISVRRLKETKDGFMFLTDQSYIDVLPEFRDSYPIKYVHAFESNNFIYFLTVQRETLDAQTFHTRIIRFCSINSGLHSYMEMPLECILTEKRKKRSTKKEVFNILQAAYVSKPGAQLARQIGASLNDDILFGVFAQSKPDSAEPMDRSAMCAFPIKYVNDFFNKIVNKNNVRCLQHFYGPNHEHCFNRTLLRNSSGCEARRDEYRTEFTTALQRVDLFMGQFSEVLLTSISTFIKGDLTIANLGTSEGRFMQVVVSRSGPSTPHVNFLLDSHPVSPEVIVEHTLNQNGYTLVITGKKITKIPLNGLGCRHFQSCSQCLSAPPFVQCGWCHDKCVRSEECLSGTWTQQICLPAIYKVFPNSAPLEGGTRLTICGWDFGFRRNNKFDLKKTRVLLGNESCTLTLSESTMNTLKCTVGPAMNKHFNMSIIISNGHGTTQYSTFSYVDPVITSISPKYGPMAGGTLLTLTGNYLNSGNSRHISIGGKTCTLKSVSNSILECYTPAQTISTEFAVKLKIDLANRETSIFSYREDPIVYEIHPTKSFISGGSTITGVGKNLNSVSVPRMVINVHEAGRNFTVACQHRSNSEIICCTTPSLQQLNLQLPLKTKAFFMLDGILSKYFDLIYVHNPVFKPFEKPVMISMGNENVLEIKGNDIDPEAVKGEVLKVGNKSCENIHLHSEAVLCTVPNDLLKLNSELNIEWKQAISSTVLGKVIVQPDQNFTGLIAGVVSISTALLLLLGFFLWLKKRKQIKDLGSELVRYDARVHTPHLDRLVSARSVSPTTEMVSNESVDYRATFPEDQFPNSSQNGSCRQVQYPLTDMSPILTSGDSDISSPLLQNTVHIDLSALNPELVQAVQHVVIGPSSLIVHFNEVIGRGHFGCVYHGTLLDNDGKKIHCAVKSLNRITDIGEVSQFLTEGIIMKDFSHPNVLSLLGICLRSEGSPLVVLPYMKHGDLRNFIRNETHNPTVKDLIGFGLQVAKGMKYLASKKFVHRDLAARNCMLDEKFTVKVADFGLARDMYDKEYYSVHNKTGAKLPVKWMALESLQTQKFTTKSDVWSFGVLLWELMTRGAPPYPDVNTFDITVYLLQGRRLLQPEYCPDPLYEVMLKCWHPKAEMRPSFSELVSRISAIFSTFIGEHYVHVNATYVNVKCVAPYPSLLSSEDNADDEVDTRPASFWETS

IC50 [1] [nM]	IC50 [2] [nM]	SMILES
2.2	2.8	CN1C(=O)COc2c1cnc1cc(F)c(Sc3nnc4ccc(-c5cnn(C)c5)nn34)cc21 [Embodiment 2, 8-fluoro-4-methyl-9-{[6-(1-methyl-1H-pyrazol-4-yl)-[1,2,4]triazolo[4,3-b]pyridazin-3-yl]sulfanyl}-2H-[1,4]oxazino[3,2-c]quinolin-3 (4H)-one]
1	1.2	CN1C(=O)COc2c1cnc1cc(F)c(C(F)(F)c3nnc4ccc(-c5cnn(C)c5)nn34)cc21 [Embodiment 1, 9-{difluoro(6-(1-methyl-1H-pyrazol-4-yl)-[1,2,4]triazolo[4,3-b]pyridazin-3-yl)methyl}-8-fluoro-4-methyl-2H-[1,4]oxazino[3,2-c]quinolin-3(4H)-one]
4.9	4.7	Cn1cc(-c2ccc3nnc(C(F)(F)c4ccc5ncccc5c4)n3n2)cn1 [JNJ-38877605, reference compound]

From patent US10301325B2, “Quinoline derivative, and pharmaceutical composition, preparation method and use thereof” (SHANGHAI HAIJU BIOLOGICAL TECHNOLOGY CO., LTD., priority 2015, dated 2019)
